Patent publication US20200046703A1, “COMPOSITIONS AND METHODS FOR TREATMENT OF THE SIDE-EFFECTS ASSOCIATED WITH ADMINISTRATION OF THERAPEUTIC AGENTS” (ASYMMETRIC THERAPEUTICS, LLC, priority 2018, published 2020)

Assays:
confluent HPEK cells = assay: Confluent HPEK cell viability with/without 5-FU; assay type: cell-based, human; settings: for relative cell viability (AVG): 120 hours; for Relative Protection against 5-FU toxicity / Relative Growth in the presence of 5-FU: HPEK confluent cells; for Relative Protection against 5-FU toxicity: fraction of viability loss prevented; for Relative Growth in the presence of 5-FU: viability with 5-FU divided by viability without 5-FU
Procedure: Oxypurinol and allopurinol concentrations of 0.3 mM, 1.0 mM, and 3.0 mM, which are ten times higher than those used in the first set of experiments, were tested. An adenine concentration of 0.3 mM, which was the higher concentration used in the first set of experiments, was tested. The relative viability of the cells was determined after 120 hours.

proliferating HPEK cells = assay: Proliferating HPEK cell viability with/without 5-FU; assay type: cell-based, human; settings: with 5-FU 10 μM, 120 hours
Procedure: (§1) In another set of experiments, the results of which are shown in Table 2, proliferating HPEK cells, commonly used to assess skin tissue toxicity, were exposed to the clinically-relevant dose of 10 μM of 5-FU and different concentrations of oxypurinol, either alone or with different concentrations of adenine or uracil, using standard tissue culture methods and incubated at 37° C. Oxypurinol concentrations of 0.03 mM, 0.1 mM, and 0.3 mM were tested. Adenine and uracil concentrations of 0.1 mM and 0.3 mM were tested. The relative viability of the cells was determined after 120 hours.

proliferating HGEP cells = assay: Proliferating HGEP cell viability with/without 5-FU; assay type: cell-based, human; settings: with 5-FU 10 μM, 120 hours
Procedure: as §1, with “one” for “another”, “1,” for “2,”, “HGEP” for “HPEK”, “oral mucosal” for “skin tissue”

[1] = test system: mucositis toxicity of 5-FU; settings: maximally-tolerated oral dose of 800 mg/day; 5 μM of 5-FU; cited from earlier work
confluent NHEK cells = assay: Confluent NHEK cell viability with/without 5-FU; assay type: cell-based, human; settings: for relative cell viability (AVG): 120 hours; for Relative Growth in the presence of 5-FU / Relative Protection against 5-FU toxicity: NHEK; for Relative Protection against 5-FU toxicity: fraction of viability loss prevented
Procedure: In yet another set of experiments, the results of which are shown in Table 4, confluent NHEK cells were exposed to the clinically-relevant dose of 10 μM of 5-FU and different concentrations of sodium hydroxide, oxypurinol, or allopurinol using standard tissue culture methods and incubated at 37° C. Sodium hydroxide concentrations of 1 mM, 2 mM, 3 mM, and 4 mM were tested. Oxypurinol and allopurinol concentrations of 0.1 mM, 0.3 mM, 1.0 mM, and 3.0 mM were tested, both in the presence and in the absence of 10 μM of 5-FU. The relative viability of the cells was determined after 120 hours. The sodium hydroxide trials were only performed to serve as a control.

hand-foot syndrome = settings: allopurinol at 3%, topical; cited from earlier work

Compound: Nc1ncnc2nc[nH]c12 [Adenine, adenine, reference compound]
- relative cell viability (AVG) (confluent HPEK cells; 0.3 mM, no 5-FU): 1.3784
- relative cell viability (AVG) (confluent HPEK cells; 0.3 mM, with 5-FU 10 μM): 0.7456
- relative cell viability (AVG) (proliferating HPEK cells; 0.1 mM): 0.6214
- relative cell viability (AVG) (proliferating HPEK cells; 0.3 mM): 0.5985
- relative cell viability (AVG) (proliferating HGEP cells; 0.1 mM): 0.7549
- relative cell viability (AVG) (proliferating HGEP cells; 0.3 mM): 0.6389

Compound: Oc1ncnc2[nH]ncc12 [Allopurinol, allopurinol]
- relative cell viability (AVG) (confluent HPEK cells; 0.3 mM, no 5-FU): 1.1870
- relative cell viability (AVG) (confluent HPEK cells; 0.3 mM, with 5-FU 10 μM): 0.7303
- relative cell viability (AVG) (confluent HPEK cells; 1.0 mM, no 5-FU): 1.2411
- relative cell viability (AVG) (confluent HPEK cells; 1.0 mM, with 5-FU 10 μM): 0.7748
- relative cell viability (AVG) (confluent HPEK cells; 3.0 mM, no 5-FU): 1.0410
- relative cell viability (AVG) (confluent HPEK cells; 3.0 mM, with 5-FU 10 μM): 0.7528
- Relative Protection against 5-FU toxicity (confluent HPEK cells; 0.3 mM): 0.2464
- Relative Growth in the presence of 5-FU (confluent HPEK cells; 0.3 mM): 0.6152
- Relative Protection against 5-FU toxicity (confluent HPEK cells; 1.0 mM): 0.3709
- Relative Growth in the presence of 5-FU (confluent HPEK cells; 1.0 mM): 0.6243
- Relative Protection against 5-FU toxicity (confluent HPEK cells; 3.0 mM): 0.3092
- Relative Growth in the presence of 5-FU (confluent HPEK cells; 3.0 mM): 0.7231
- effect on cell viability in the presence of 5-FU (confluent HPEK cells; concentration range of 0.3 mM to 3.0 mM): protective effect
- prevention of mucositis toxicity of 5-FU [1]: does not prevent the mucositis toxicity
- effect on cell viability in the presence of 5-FU (confluent NHEK cells; 0.1 mM to 3.0 mM): protective effect for confluent NHEK cells that was generally less than oxypurinol
- relative cell viability (AVG) (confluent NHEK cells; 0.1 mM, no 5-FU): 1.0426
- relative cell viability (AVG) (confluent NHEK cells; 0.1 mM, with 5-FU 10 μM): 0.6303
- relative cell viability (AVG) (confluent NHEK cells; 0.1 mM, with 5-FU 10 μM, listed as allopurinol): 0.63
- relative cell viability (AVG) (confluent NHEK cells; 0.3 mM, no 5-FU): 1.1285
- relative cell viability (AVG) (confluent NHEK cells; 0.3 mM, with 5-FU 10 μM): 0.5100
- relative cell viability (AVG) (confluent NHEK cells; 0.3 mM, with 5-FU 10 μM, listed as allopurinol): 0.51
- relative cell viability (AVG) (confluent NHEK cells; 1.0 mM, no 5-FU): 1.1137
- relative cell viability (AVG) (confluent NHEK cells; 1.0 mM, with 5-FU 10 μM): 0.4370
- relative cell viability (AVG) (confluent NHEK cells; 1.0 mM, with 5-FU 10 μM, listed as allopurinol): 0.44
- Relative Growth in the presence of 5-FU (confluent NHEK cells; 3.0 mM, FIG. 2): less than 41%
- relative cell viability (AVG) (confluent NHEK cells; 3.0 mM, no 5-FU): 1.0640
- relative cell viability (AVG) (confluent NHEK cells; 3.0 mM, with 5-FU 10 μM): 0.4348
- relative cell viability (AVG) (confluent NHEK cells; 3.0 mM, with 5-FU 10 μM, listed as allopurinol): 0.44
- Relative Protection against 5-FU toxicity (confluent NHEK cells; 0.1 mM): 0.3664
- Relative Growth in the presence of 5-FU (confluent NHEK cells; 0.1 mM, viability with 5-FU divided by viability without 5-FU): 0.6045
- Relative Protection against 5-FU toxicity (confluent NHEK cells; 0.3 mM): 0.1603
- Relative Growth in the presence of 5-FU (confluent NHEK cells; 0.3 mM, viability with 5-FU divided by viability without 5-FU): 0.4519
- Relative Protection against 5-FU toxicity (confluent NHEK cells; 1.0 mM): 0.0352
- Relative Growth in the presence of 5-FU (confluent NHEK cells; 1.0 mM, viability with 5-FU divided by viability without 5-FU): 0.3924
- Relative Protection against 5-FU toxicity (confluent NHEK cells; 3.0 mM): 0.0314
- Relative Growth in the presence of 5-FU (confluent NHEK cells; 3.0 mM, viability with 5-FU divided by viability without 5-FU): 0.4086
- effect on cell viability in the absence of 5-FU (confluent NHEK cells; range of 0.1 mM to 3.0 mM): small positive effect
- therapeutic benefit against HFS (hand-foot syndrome): did not achieve an adequate therapeutic benefit
